Assay results published in US10590143B2, “Herbicidally active (alkynyl-phenyl)-substituted cyclic dione compounds and derivatives thereof” (Syngenta Limited, priority 2013, dated 2020).
Where two headings read alike, the source gives them in different places.

Legend:
Experiment in all cases: Biological Example 1 glasshouse assay for herbicidal activity
Assay type in all cases: in vivo
[1] = tested on: Abutilon theophrasti (ABUTH); settings: 312 h, 13 days after application, read-out: percentage phytotoxicity ABUTH
Summary of the method: (§1)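 Weeds were sprayed pre-emergence (1 day after sowing) or post-emergence (8 days) with herbicide in acetone/water 50:50 plus 0.5% Tween 20. Plants grew in glasshouse at 24/16 °C, 14 h light, 65% humidity. Phytotoxicity was scored visually at 13 days (0–100%), usually one plant per species per rate.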

[2] = tested on: Alopecurus myosuroides (ALOMY); settings: 312 h, 13 days after application, read-out: percentage phytotoxicity ALOMY
Summary of the method: as §1

[3] = tested on: Amaranthus retroflexus (AMARE); settings: Amaranthus retroflexus, 312 h, 13 days after application, read-out: percentage phytotoxicity AMARE
Summary of the method: as §1

[4] = tested on: Echinochloa crus-galli (ECHCG); settings: Echinochloa crus-galli, 312 h, 13 days after application, read-out: percentage phytotoxicity ECHCG
Summary of the method: as §1

Setaria faberi (SETFA) = settings: 312 h, 13 days after application, read-out: percentage phytotoxicity SETFA
Summary of the method: as §1

[5] = tested on: Zea mays (ZEAMX, corn, maize, e.g. volunteer corn); settings: Zea mays, 312 h, 13 days after application, read-out: percentage phytotoxicity ZEAMX
Summary of the method: as §1

Compound | pest or weed control at 8 g/ha ([1]; post-emergence, post-emergence) | pest or weed control at 30 g/ha ([1]; post-emergence, post-emergence) | pest or weed control at 250 g/ha ([1]; post-emergence, post-emergence) | pest or weed control at 30 g/ha ([1]; pre-emergence, pre-emergence) | pest or weed control at 250 g/ha ([1]; pre-emergence, pre-emergence) | pest or weed control at 8 g/ha ([2]; post-emergence) | pest or weed control at 30 g/ha ([2]; post-emergence) | pest or weed control at 250 g/ha ([2]; post-emergence) | pest or weed control at 30 g/ha ([2]; pre-emergence) | pest or weed control at 250 g/ha ([2]; pre-emergence) | pest or weed control at 8 g/ha ([3]; post-emergence, post-emergence) | pest or weed control at 30 g/ha ([3]; post-emergence, post-emergence) | pest or weed control at 250 g/ha ([3]; post-emergence, post-emergence) | pest or weed control at 30 g/ha ([3]; pre-emergence, pre-emergence) | pest or weed control at 250 g/ha ([3]; pre-emergence, pre-emergence) | pest or weed control at 8 g/ha ([4]; post-emergence, post-emergence) | pest or weed control at 30 g/ha ([4]; post-emergence, post-emergence) | pest or weed control at 250 g/ha ([4]; post-emergence, post-emergence) | pest or weed control at 30 g/ha ([4]; pre-emergence, pre-emergence) | pest or weed control at 250 g/ha ([4]; pre-emergence, pre-emergence) | further results
CC#Cc1cc(F)c(C2=C(OC(=O)C(C)(C)C)C3CCC(C3)C2=O)c(OC)c1 (stereo not drawn) [Compound P1] | 0% | 0% | 80% | 10% | 30% | 60% | 90% | 100% | 70% | 100% | 0% | 10% | 40% | 50% | 70% | 80% | 100% | 100% | 90% | 100% | pest or weed control at 8 g/ha (Setaria faberi (SETFA); post-emergence, post-emergence): 70%; pest or weed control at 30 g/ha (Setaria faberi (SETFA); post-emergence, post-emergence): 80%; pest or weed control at 250 g/ha (Setaria faberi (SETFA); post-emergence, post-emergence): 100%; pest or weed control at 30 g/ha (Setaria faberi (SETFA); pre-emergence, pre-emergence): 40%; pest or weed control at 250 g/ha (Setaria faberi (SETFA); pre-emergence, pre-emergence): 80%; pest or weed control at 8 g/ha ([5]; post-emergence, post-emergence): 100%; pest or weed control at 30 g/ha ([5]; post-emergence, post-emergence): 100%; pest or weed control at 250 g/ha ([5]; post-emergence, post-emergence): 100%; pest or weed control at 30 g/ha ([5]; pre-emergence, pre-emergence): 90%; pest or weed control at 250 g/ha ([5]; pre-emergence, pre-emergence): 100%
CC#Cc1cc(F)c(C2=C(OC(=O)OC(C)C)C3CCC(C3)C2=O)c(OC)c1 (stereo not drawn) [Compound P3] | 10% | 10% | 80% | 0% | 10% | 60% | 80% | 100% | 70% | 100% | 0% | 0% | 40% | 30% | 60% | 80% | 100% | 100% | 80% | 100% | pest or weed control at 8 g/ha (Setaria faberi (SETFA); post-emergence, post-emergence): 60%; pest or weed control at 30 g/ha (Setaria faberi (SETFA); post-emergence, post-emergence): 80%; pest or weed control at 250 g/ha (Setaria faberi (SETFA); post-emergence, post-emergence): 100%; pest or weed control at 30 g/ha (Setaria faberi (SETFA); pre-emergence, pre-emergence): 20%; pest or weed control at 250 g/ha (Setaria faberi (SETFA); pre-emergence, pre-emergence): 80%; pest or weed control at 8 g/ha ([5]; post-emergence, post-emergence): 90%; pest or weed control at 30 g/ha ([5]; post-emergence, post-emergence): 100%; pest or weed control at 250 g/ha ([5]; post-emergence, post-emergence): 100%; pest or weed control at 30 g/ha ([5]; pre-emergence, pre-emergence): 80%; pest or weed control at 250 g/ha ([5]; pre-emergence, pre-emergence): 100%
CC#Cc1cc(F)c(C2=C(OC(=O)SCC)C3CCC(C3)C2=O)c(OC)c1 (stereo not drawn) [Compound P4] | 10% | 20% | 80% | 0% | 40% | 80% | 90% | 90% | 80% | 100% | 20% | 30% | 20% | 30% | 60% | 90% | 100% | 100% | 100% | 100% | pest or weed control at 8 g/ha (Setaria faberi (SETFA); post-emergence, post-emergence): 70%; pest or weed control at 30 g/ha (Setaria faberi (SETFA); post-emergence, post-emergence): 80%; pest or weed control at 250 g/ha (Setaria faberi (SETFA); post-emergence, post-emergence): 100%; pest or weed control at 30 g/ha (Setaria faberi (SETFA); pre-emergence, pre-emergence): 60%; pest or weed control at 250 g/ha (Setaria faberi (SETFA); pre-emergence, pre-emergence): 90%; pest or weed control at 8 g/ha ([5]; post-emergence, post-emergence): 100%; pest or weed control at 30 g/ha ([5]; post-emergence, post-emergence): 100%; pest or weed control at 250 g/ha ([5]; post-emergence, post-emergence): 100%; pest or weed control at 30 g/ha ([5]; pre-emergence, pre-emergence): 90%; pest or weed control at 250 g/ha ([5]; pre-emergence, pre-emergence): 100%
CC#Cc1cc(F)c(C2=C(OC(=O)c3ccccc3)C3CCC(C3)C2=O)c(OC)c1 (stereo not drawn) [Compound P5, [3-(2-fluoro-6-methoxy-4-prop-1-ynyl-phenyl)-4-oxo-2-bicyclo[3.2.1]oct-2-enyl]benzoate] | 0% | 10% | 80% | 0% | 60% | 70% | 90% | 90% | 70% | 100% | 0% | 0% | 20% | 20% | 70% | 90% | 100% | 100% | 80% | 100% | pest or weed control at 8 g/ha (Setaria faberi (SETFA); post-emergence, post-emergence): 60%; pest or weed control at 30 g/ha (Setaria faberi (SETFA); post-emergence, post-emergence): 80%; pest or weed control at 250 g/ha (Setaria faberi (SETFA); post-emergence, post-emergence): 90%; pest or weed control at 30 g/ha (Setaria faberi (SETFA); pre-emergence, pre-emergence): 60%; pest or weed control at 250 g/ha (Setaria faberi (SETFA); pre-emergence, pre-emergence): 80%; pest or weed control at 8 g/ha ([5]; post-emergence, post-emergence): 100%; pest or weed control at 30 g/ha ([5]; post-emergence, post-emergence): 100%; pest or weed control at 250 g/ha ([5]; post-emergence, post-emergence): 100%; pest or weed control at 30 g/ha ([5]; pre-emergence, pre-emergence): 80%; pest or weed control at 250 g/ha ([5]; pre-emergence, pre-emergence): 100%
